Reference: patent US20240109972A1, “ANTIBODY AND TAXANE COMBINATION THERAPY” (Genmab A/S, priority 2020, published 2024)

System: solid malignant tumors
Assay: GEN1046 Phase I dose escalation (NCT03917381), response by RECIST v1.1
Assay type: in vivo, human
Description: The resistance to, failure to respond to and/or relapse from treatment with a binding agent of the invention and/or other therapeutic agent(s) may be determined according to the Response Evaluation Criteria In Solid Tumors; version 1.1 (RECIST Criteria v1.1).
The “best overall response” is the best response recorded from the start of the treatment until disease progression/recurrence (the smallest measurements recorded since the treatment started will be used as the reference for PD). Subjects with CR or PR are considered to be objective response. Subjects with CR, PR or SD are considered to be in disease control. Subjects with NE are counted as non-responders. […]
Clinical trial on GCT1046-01 (ClinicalTrials.gov Identifier: NCT03917381) was designed as a two-part trial, including an ongoing dose escalation part and a planned expansion part.
The trial consists of 2 parts; a First-in-Human (FIH) dose escalation (Phase I) and an expansion (Phase 11a).
For dose escalation, subject was required to be a man or […] and was required to have measurable disease according to RECIST 1.1.

[1] = six patients with NSCLC, prior checkpoint immunotherapy

GEN1046: PD-L1×4-1BB bispecific antibody: PD-L1-547-FEAL combined with CD137-009-HC7LC2-FEAR (SEQ ID NOs: 1, 5, 21, 19; 8, 12, 22, 20)
Confirmed PD (Progressive Disease), patients (800 mg (N 9), Oct. 12, 2020): 2
Confirmed PR (Partial Response), patients (800 mg (N 9), Oct. 12, 2020): 0
Confirmed SD (Stable Disease), % of patients (800 mg (N 9), Oct. 12, 2020): 55.6%
Confirmed SD (Stable Disease), patients (800 mg (N 9), Oct. 12, 2020): 5
Disease Control (PR + PR + SD) Rate, % (800 mg (N 9), Oct. 12, 2020): 55.6%
Disease Control (PR + PR + SD) Rate, patients (800 mg (N 9), Oct. 12, 2020): 5
NE (Not Evaluable), % of patients (800 mg (N 9), Oct. 12, 2020): 22.2%
NE (Not Evaluable), patients (800 mg (N 9), Oct. 12, 2020): 2
Objective Response (CR + PR) Rate, patients (800 mg (N 9), Oct. 12, 2020): 0
PD (Progressive Disease), % of patients (800 mg (N 9), Oct. 12, 2020): 22.2%
PD (Progressive Disease), patients (800 mg (N 9), Oct. 12, 2020): 2
PR (Partial Response), patients (800 mg (N 9), Oct. 12, 2020): 0
CR (Complete Response), patients (1200 mg (N 4), Oct. 12, 2020): 0
Confirmed CR (Complete Response), patients (1200 mg (N 4), Oct. 12, 2020): 0
Confirmed Disease Control (PR + PR + SD) Rate, % (1200 mg (N 4), Oct. 12, 2020): 75.0%
Confirmed Disease Control (PR + PR + SD) Rate, patients (1200 mg (N 4), Oct. 12, 2020): 3
Confirmed NE (Not Evaluable), patients (1200 mg (N 4), Oct. 12, 2020): 0
Confirmed Objective Response (CR + PR) Rate, patients (1200 mg (N 4), Oct. 12, 2020): 0
Confirmed PD (Progressive Disease), % of patients (1200 mg (N 4), Oct. 12, 2020): 25.0%
Confirmed PD (Progressive Disease), patients (1200 mg (N 4), Oct. 12, 2020): 1
Confirmed PR (Partial Response), patients (1200 mg (N 4), Oct. 12, 2020): 0
Confirmed SD (Stable Disease), % of patients (1200 mg (N 4), Oct. 12, 2020): 75.0%
Confirmed SD (Stable Disease), patients (1200 mg (N 4), Oct. 12, 2020): 3
Disease Control (PR + PR + SD) Rate, % (1200 mg (N 4), Oct. 12, 2020): 75.0%
Disease Control (PR + PR + SD) Rate, patients (1200 mg (N 4), Oct. 12, 2020): 3
NE (Not Evaluable), patients (1200 mg (N 4), Oct. 12, 2020): 0
Objective Response (CR + PR) Rate, patients (1200 mg (N 4), Oct. 12, 2020): 0
PD (Progressive Disease), % of patients (1200 mg (N 4), Oct. 12, 2020): 25.0%
PD (Progressive Disease), patients (1200 mg (N 4), Oct. 12, 2020): 1
PR (Partial Response), patients (1200 mg (N 4), Oct. 12, 2020): 0
Partial responses, patients (ICI pre-treated NSCLC): 2
CR (Complete Response), patients (Total (N 61), Oct. 12, 2020): 0
Confirmed CR (Complete Response), patients (Total (N 61), Oct. 12, 2020): 0
Confirmed Disease Control (PR + PR + SD) Rate, % (Total (N 61), Oct. 12, 2020): (65.6%)
Confirmed Disease Control (PR + PR + SD) Rate, patients (Total (N 61), Oct. 12, 2020): 40
Confirmed NE (Not Evaluable), % of patients (Total (N 61), Oct. 12, 2020): (11.5%)
Confirmed NE (Not Evaluable), patients (Total (N 61), Oct. 12, 2020): 7
Confirmed Objective Response (CR + PR) Rate, % (Total (N 61), Oct. 12, 2020): (3.3%)
Confirmed Objective Response (CR + PR) Rate, patients (Total (N 61), Oct. 12, 2020): 2
Confirmed PD (Progressive Disease), % of patients (Total (N 61), Oct. 12, 2020): (23.0%)
Confirmed PD (Progressive Disease), patients (Total (N 61), Oct. 12, 2020): 14
Confirmed PR (Partial Response), % of patients (Total (N 61), Oct. 12, 2020): (3.3%)
Confirmed PR (Partial Response), patients (Total (N 61), Oct. 12, 2020): 2
Confirmed SD (Stable Disease), % of patients (Total (N 61), Oct. 12, 2020): (62.3%)
Confirmed SD (Stable Disease), patients (Total (N 61), Oct. 12, 2020): 38
Disease Control (PR + PR + SD) Rate, patients (Total (N 61), Oct. 12, 2020): 40
NE (Not Evaluable), % of patients (Total (N 61), Oct. 12, 2020): (11.5%)
NE (Not Evaluable), patients (Total (N 61), Oct. 12, 2020): 7
Objective Response (CR + PR) Rate, % (Total (N 61), Oct. 12, 2020): (6.6%)
Objective Response (CR + PR) Rate, patients (Total (N 61), Oct. 12, 2020): 4
PD (Progressive Disease), % of patients (Total (N 61), Oct. 12, 2020): (23.0%)
PD (Progressive Disease), patients (Total (N 61), Oct. 12, 2020): 14
PR (Partial Response), % of patients (Total (N 61), Oct. 12, 2020): (6.6%)
BOR Complete Response, (percent) (Total (n = 30), 3 Feb. 2020): (0)
BOR Complete Response, patients (Total (n = 30), 3 Feb. 2020): 0
BOR Partial Response, (percent) (Total (n = 30), 3 Feb. 2020): (10)
BOR Partial Response, patients (Total (n = 30), 3 Feb. 2020): 3
BOR Progressive Disease, (percent) (Total (n = 30), 3 Feb. 2020): (26.6)
BOR Progressive Disease, patients (Total (n = 30), 3 Feb. 2020): 8
BOR Stable Disease, (percent) (Total (n = 30), 3 Feb. 2020): (63.3)
BOR Stable Disease, patients (Total (n = 30), 3 Feb. 2020): 19
Partial responses, patients (ovarian cancer): 1
Patients who maintained stable disease [1]: two
Patients with progressive disease [1]: two
Patients with unconfirmed PR [1]: two
Partial responses, patients (triple negative breast cancer): 1
